The text below walks through data of publication PMC5750217 (Nature Communications, 2018).

The term EC50 denotes the concentration needed to bring the measured effect to its halfway point. Read a low EC50 as a more potent agent.

One experiment concerns the target T1, ASCT2 (Homo sapiens, UniProt Q15758).
T1 sequence (Q15758 1-541): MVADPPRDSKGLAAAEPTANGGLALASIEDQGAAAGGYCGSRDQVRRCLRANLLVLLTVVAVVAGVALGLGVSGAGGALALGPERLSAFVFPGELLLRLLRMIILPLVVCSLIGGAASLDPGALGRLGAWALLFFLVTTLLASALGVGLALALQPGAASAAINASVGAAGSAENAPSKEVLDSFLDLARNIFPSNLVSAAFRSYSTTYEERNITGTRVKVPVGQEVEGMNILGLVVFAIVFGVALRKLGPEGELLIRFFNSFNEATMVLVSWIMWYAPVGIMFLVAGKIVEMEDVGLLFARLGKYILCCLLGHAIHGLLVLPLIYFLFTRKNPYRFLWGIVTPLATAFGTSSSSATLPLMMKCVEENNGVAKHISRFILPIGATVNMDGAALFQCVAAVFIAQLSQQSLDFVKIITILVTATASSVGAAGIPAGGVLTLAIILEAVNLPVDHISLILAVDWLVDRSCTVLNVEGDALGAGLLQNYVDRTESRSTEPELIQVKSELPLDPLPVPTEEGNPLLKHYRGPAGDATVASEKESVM
The experiment in a line: Radiolabelled uptake in oocytes expressing ASCT2. In kind it is cell-based. The following applies: 10 µM radiolabelled substrate, 10 min, room temperature. As to the method: Uptake of L-[^3H]amino acids (PerkinElmer Life Sciences) was measured in oocytes expressing wild-type and mutant ASCT1, and uninjected oocytes. Five oocytes were incubated in Cl^−-containing buffer with 10 µM L-[^3H]amino acids at room temperature. After 10 min, uptake was terminated by three rapid washes in ice-cold Cl^−-containing buffer followed by lysis in 50 mM NaOH and 1% SDS. L-[^3H]amino acids were measured by scintillation counting using a Trilux beta counter (PerkinElmer Life Sciences).
Supplementary Figure 6. GltPh‐R397C, ASCT1 and ASCT2 are functional cysteine transporters. (a) […]
7.5) containing 1 µM of valinomycin and the 10µM 35S‐cysteine. […]
(1 picture or pasted object on this page, not shown here)

In a further experiment the target is T2, A1-T459C (mutant ASCT1) (Homo sapiens, UniProt P43007, T459C).
T2 construct: expressed in transfected cells; host or cells: Xenopus laevis oocytes (cRNA injection)
T2 sequence (P43007 1-532 T459C): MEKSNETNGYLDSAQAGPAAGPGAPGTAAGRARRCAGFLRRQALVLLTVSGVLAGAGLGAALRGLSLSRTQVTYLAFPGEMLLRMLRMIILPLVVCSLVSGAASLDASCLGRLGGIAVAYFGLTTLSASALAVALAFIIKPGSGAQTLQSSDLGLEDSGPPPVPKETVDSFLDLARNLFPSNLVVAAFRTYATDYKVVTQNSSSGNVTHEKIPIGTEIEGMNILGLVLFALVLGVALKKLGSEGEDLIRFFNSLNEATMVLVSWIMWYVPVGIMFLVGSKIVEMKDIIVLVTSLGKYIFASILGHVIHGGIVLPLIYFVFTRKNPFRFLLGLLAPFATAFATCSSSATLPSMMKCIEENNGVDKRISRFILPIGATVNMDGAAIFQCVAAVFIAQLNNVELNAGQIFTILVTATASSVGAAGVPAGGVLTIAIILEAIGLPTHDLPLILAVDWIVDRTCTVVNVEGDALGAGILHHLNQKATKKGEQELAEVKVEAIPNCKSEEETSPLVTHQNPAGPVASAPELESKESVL
The experiment in a line: Two electrode voltage clamp, substrate-activated anion current in oocytes expressing A1-T459C. In kind it is cell-based. The following applies: for EC50: A1-T459C in oocytes, NO3−-containing buffer, current at +60 mV. The procedure: All chemicals were obtained from Sigma unless otherwise stated. Stage V oocytes were harvested from female Xenopus laevis (frogs) which were obtained from Nasco (Fort Alkinson, USA). Frogs were anaesthetised with 6.5 mM tricaine neutralised with 7.14 mM sodium bicarbonate. After making an incision in the abdomen of the frog, ovarian sacs were removed and stored in OR-2 buffer (82.5 mM NaCl, 2 mM KCl, 1 mM MgCl2, 5 mM hemisodium HEPES, pH 7.5). This surgical procedure follows a protocol (#2016/970) approved by the University of Sydney Animal Ethics Committee under the Australian Code of Practice for the Care and Use of Animals for Scientific Purposes. To isolate oocytes, the ovarian sacs were cut into small sections before being digested by agitation with 2 mg per ml Collagenase A for 1–2 h. Following digestion, defoliculated oocytes were initially rinsed with OR-2, followed by frog Ringer’s solution (96 mM NaCl, 2 mM KCl, 1 mM MgCl2, 1.8 mM CaCl2, 5 mM hemisodium HEPES, pH 7.5). A total of 20 ng of transporter cRNA was injected into oocytes which were stored in frog Ringer’s solution supplemented with 0.1% gentamycin, 50 μg per ml tetracycline, 2.5 mM pyruvate and 0.5 mM theophylline at 16–18 °C.
After 2–4 days of microinjection, current recordings were made using the two electrode voltage clamp technique with a Geneclamp 500 amplifier (Axon Instruments, Foster City, CA) interfaced with a MacLab 2e chart recorder (ADI Instruments, Sydney, Australia) using the chart software, and a Digidata 1322A (Axon Instruments) controlled by an IBM-compatible computer using the pClamp software (version 10, Molecular Devices, Union City, CA). The current–voltage relationships for substrate elicited conductances were obtained by subjecting cells to 200 ms voltage pulses between −100 mV and + 60 mV in 10 mV steps. Current–voltage relationships were calculated by subtracting steady state current measurements in the absence of substrate from corresponding current measurements in the presence of substrate. […]

Consider `N[C@@H](CO)C(=O)O` [L-serine], for which the “Radiolabelled substrate uptake into oocytes (in words)” value at ASCT2 was “observe L-[^3H]serine uptake”. The molecule further registered an EC50 at A1-T459C (mutant ASCT1) of 83 ± 6 µM. In the case of `N[C@@H](CCC(=O)Nc1ccc([N+](=O)[O-])cc1)C(=O)O` [GPNA, glutamyl-p-nitroanilide], on A1-T459C (mutant ASCT1) (A1-T459C, GPNA co-applied with EC50 of L-serine, maximal dose / 1 mM GPNA (Table 1 footnote)), the “GPNA % inhibition of L-serine activated current” value is listed as 18 ± 1%. Turning to `NC(=O)CC[C@H](N)C(=O)O` [L-glutamine], the “Radiolabelled substrate uptake into oocytes (in words)” value on ASCT2 is “robust L-[^3H]glutamine uptake”. The EC50 on A1-T459C (mutant ASCT1) was 260 ± 80 µM. For the molecule `N[C@@H](CS)C(=O)O` [L-cysteine], at ASCT2, the “Radiolabelled substrate uptake into oocytes (in words)” value was “robust L-[^35S]cysteine uptake”.
